Tested on: antigen induced bronchospasm
Test: Inhibition of antigen induced bronchospasm in passively sensitized guinea pigs
Format: in vivo, guinea pig
Conditions: 60 min before antigen, 3 min after antigen application
Protocol: The following tests were conducted to determine the effectiveness of the new compounds in the inhibition of antigen induced bronchospasm in passively sensitized guinea pigs.
The antigen is twice recrystallised egg albumin. Equal volumes of saline solution of antigen (5 mg/ml) and Freund's complete adjuvant were emulsified and 0.15 ml injected into each hind foot of adult male guinea pigs (DAVIES and JOHNSON: Int. Arch. Allergy 41, 648-654 (1971)).
The animals were bled and the pooled serum stored at -20° C.
Injections of 0.5 ml antiserum of 1:50 dilution were given i.v. 24-48 h before challenge.
Guinea pigs were anaesthetized with pentobarbitone sodium (40 mg/kg i.p.). Cannulae were tied into the trachea and the jugular vein and the lung inflated with a pump at a rate of 72 strokes/min and a constant stroke volume of 6-8 ml.
Bronchospasm, provoked by injecting ovalbumin i.v. was measured as described in COLLIER, H. O. J., J. A. HOLGATE, M. SCHACHTER: THE BRONCHOCONSTRICTOR ACTION OF BRADYKININ IN THE GUINEA-PIG. Brit. J. Pharmacol. 15, 290 (1960) and KONZETT, H. und R. ROSSLER: Versuchsanordnung zu Untersuchungen an der Bronchialmuskulatur. Naunyn-Schmiedebergs Arch. exp. Path. Pharmk. 195, 71-74 (1940)
Drugs were applied p.o. 60 min before antigen. For calculation the following formular was used: [formula]
b=Bronchospasm after antigen injection, measured in mm from tracing
m=maximum height of tracing in mm with arm of the trachea-cannula clamped
a=pre injection height of the tracing in mm
% inhibition of bronchospasm was calculated by comparing control groups with drug pretreated groups 3 min after antigen application.

Structure (SMILES): Cc1c(C)c2ccc(OCCCN3CCC(NC(=O)c4cccs4)CC3)cc2oc1=O [3,4-Dimethyl-7-{3-[4-(thiophene-2-carboxamido)-piperidino]-propoxy}-cumarin, reference compound]
- % Inhibition of BrSp (bronchospasm) (0.75 mg/kg p.o.): 0%
- % Inhibition of BrSp (bronchospasm) (1.5 mg/kg p.o.): 40%
- % Inhibition of BrSp (bronchospasm) (3.0 mg/kg p.o.): 67%

Structure (SMILES): Cc1cc(=O)c2ccc(OCCCN3CCC(NC(=O)c4ccccc4)CC3)cc2o1 [7-[3-(4-Benzamidopiperidino)-propoxy]-2-methyl-4H-1-benzopyran-4-one]
- % Inhibition of BrSp (bronchospasm) (0.38 mg/kg p.o.): 55%
- % Inhibition of BrSp (bronchospasm) (0.75 mg/kg p.o.): 64%

Structure (SMILES): Cc1cc(=O)c2ccc(OCCCN3CCC(NC(=O)c4ccccc4C)CC3)cc2o1 [7-{3-[4-(2-methylbenzamido)-piperidino]-propoxy}-2-methyl-4H-1-benzopyran-4-one]
- % Inhibition of BrSp (bronchospasm) (0.75 mg/kg p.o.): 60%

Structure (SMILES): Cc1cc(=O)c2ccc(OCCCN3CCC(NC(=O)c4ccc(F)cc4)CC3)cc2o1 [7-{3-[4-(4-fluorobenzamido)-piperidino]-propoxy}-2-methyl-4H-1-benzopyran-4-one]
- % Inhibition of BrSp (bronchospasm) (0.38 mg/kg p.o.): 46%

Reference: US4428955A, “Benzopyran compounds, pharmaceutical compositions containing them and methods of use” (Boehringer Mannheim GmbH, priority 1981, dated 1984)
